How the values were obtained:
[1] = Plasma concentrations in rats 30 minutes after oral administration (effective plasma concentration at LPP10); conditions: rat; measured concentration multiplied by ratio between dosage used and LPP10
Protocol: (§1) Ten female rats of SD strain were anesthetized with isoflurane. In order to secure the same conditions as those for drug-administered animals, their spinal cord was transected at the T8-T9 (the eighth thoracic cord—the ninth thoracic cord) level. Then, a cannula for blood collection was inserted into the femoral artery. […] These drugs were each dissolved in 0.5% MC. Thirty minutes after oral administration, up to 250 μL of blood was collected from the femoral artery or the tail vein and treated with heparin. The collected blood was immediately cooled on ice and centrifuged under conditions involving 3,000 rpm and 4° C. for 10 minutes to obtain plasma. The plasma samples were stored under conditions of −80° C. until drug quantification.
(§2) After thawing of the plasma samples, the internal standard compound was added thereto, and the mixture was then centrifuged under conditions of 5,250 rpm. The drug contained in 60 μL of the supernatant was quantified by LC-MS/MS.

[2] = Comparison of plasma concentrations for urethra-closing effect and anti-obesity effect (analysis of Examples 1-9 and literature); conditions: free form; extrapolated, 3.3-fold less than rat 670 ng/mL
[3] = rat, in vivo, 2.5 mg/kg
Protocol: as §1, §2

CC(C)N(C)c1cnc2c(n1)OCCNC2.Cl [Compound A, N-methyl-N-(1-methylethyl)-6,7,8,9-tetrahydropyrazino[2,3-f][1,4]oxazeine-3-amine]
plasma concentration at LPP10 [1]: 61 ng/mL
average plasma concentration in a day (steady state) giving a body weight lowering effect greater than placebo by 3.8% in humans [2]: 203 ng/mL
plasma concentration 30 minutes after oral administration [3]: 94.8 ± 24.1 ng/mL

Source: patent US20210052600A1, “THERAPEUTIC AGENTS FOR STRESS URINARY INCONTINENCE AND INCOTINENCE OF FECES” (Takeda Pharmaceutical Company Limited, priority 2017, published 2021)
